# In PubChem BioAssay (NCI):
#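 Following 48 hours of exposure in 96-well plates, responses at five concentrations were used to interpolate endpoints linearly. GI50 marks 50% less growth. At the TGI there is no net growth.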
# Key:
# Test in all cases: NCI anticancer screen, dose series, 48 h
# [1] = system: OVCAR-8 ovarian
# [2] = system: HCT-15 colon
# [3] = system: DU-145 prostate
# [4] = system: MCF7 breast
# [5] = system: A549 NSCLC
# [6] = system: SR leukemia
# [7] = system: UACC-62 melanoma
# [8] = system: CAKI-1 renal
# [9] = system: MOLT-4 leukemia
# [10] = system: SF-268 CNS
# [11] = system: K-562 leukemia
# [12] = system: NCI-H460 lung
# [13] = system: OVCAR-5 ovarian
# [14] = system: PC-3 prostate
# [15] = system: NCI-H23 lung
# [16] = system: OVCAR-3 ovarian
# [17] = system: HL-60(TB) leukemia
# [18] = system: MALME-3M melanoma
# [19] = system: SK-MEL-2 melanoma
# [20] = system: ACHN renal
# [21] = system: SF-295 CNS
# [22] = system: HOP-92 NSCLC
# [23] = system: HS 578T breast
# [24] = system: COLO 205 colon
# [25] = system: EKVX NSCLC
# [26] = system: NCI/ADR-RES ovarian
# [27] = system: HT29 colon
# [28] = system: SW-620 colon
# [29] = system: BT-549 breast
# [30] = system: RXF 393 renal
# [31] = system: SF-539 CNS
# [32] = system: SNB-19 CNS
# [33] = system: M14 melanoma
# [34] = system: TK-10 renal
# [35] = system: A498 renal
# [36] = system: U251 CNS
# [37] = system: LOX IMVI melanoma
# [38] = system: T-47D breast
# [39] = system: SK-MEL-5 melanoma
# [40] = system: SNB-75 CNS
# [41] = system: UACC-257 melanoma
# [42] = system: KM12 colon
# [43] = system: NCI-H226 lung
# [44] = system: UO-31 renal
# [45] = system: 786-0 renal
# [46] = system: IGROV1 ovarian
# [47] = system: RPMI-8226 leukemia
# [48] = system: HOP-62 NSCLC
# [49] = system: NCI-H522 lung
# [50] = system: HCC-2998 colon
# [51] = system: SK-MEL-28 melanoma
# [52] = system: OVCAR-4 ovarian
# [53] = system: CCRF-CEM leukemia
# [54] = system: HCT-116 colon
# [55] = system: MDA-MB-231 breast
# [56] = system: SN12C renal
# [57] = system: MDA-MB-435
# [58] = system: SK-OV-3 ovarian
smiles,measurement,setting,value
CC(C)Oc1ccc(-c2nn([C@@H](C)c3oc4ccc(F)cc4c(=O)c3-c3cccc(F)c3)c3ncnc(N)c23)cc1F,GI50,[1],11.8 µM
same,TGI,[1],> 100 µM
same,GI50,[2],9.33 µM
same,TGI,[2],> 100 µM
same,GI50,[3],> 100 µM
same,TGI,[3],> 100 µM
same,GI50,[4],6.79 µM
same,TGI,[4],> 100 µM
same,GI50,[5],7.7 µM
same,TGI,[5],> 100 µM
same,GI50,[6],4.93 µM
same,TGI,[6],> 100 µM
same,GI50,[7],> 100 µM
same,TGI,[7],> 100 µM
same,GI50,[8],5.6 µM
same,TGI,[8],> 100 µM
same,GI50,[9],9.28 µM
same,TGI,[9],> 100 µM
same,GI50,[10],19.1 µM
same,TGI,[10],> 100 µM
same,GI50,[11],5.68 µM
same,TGI,[11],> 100 µM
same,GI50,[12],17.6 µM
same,TGI,[12],> 100 µM
same,GI50,[13],> 100 µM
same,TGI,[13],> 100 µM
same,GI50,[14],4.68 µM
same,TGI,[14],> 100 µM
same,GI50,[15],60.9 µM
same,TGI,[15],> 100 µM
same,GI50,[16],30.2 µM
same,TGI,[16],> 100 µM
same,GI50,[17],30.4 µM
same,TGI,[17],> 100 µM
same,GI50,[18],> 100 µM
same,TGI,[18],> 100 µM
same,GI50,[19],> 100 µM
same,TGI,[19],> 100 µM
same,GI50,[20],50.1 µM
same,TGI,[20],> 100 µM
same,GI50,[21],> 100 µM
same,TGI,[21],> 100 µM
same,GI50,[22],4.71 µM
same,TGI,[22],> 100 µM
same,GI50,[23],47.5 µM
same,TGI,[23],> 100 µM
same,GI50,[24],67.3 µM
same,TGI,[24],> 100 µM
same,GI50,[25],8.61 µM
same,TGI,[25],> 100 µM
same,GI50,[26],20.7 µM
same,TGI,[26],> 100 µM
same,GI50,[27],21.8 µM
same,TGI,[27],> 100 µM
same,GI50,[28],> 100 µM
same,TGI,[28],> 100 µM
same,GI50,[29],6.99 µM
same,TGI,[29],> 100 µM
same,GI50,[30],4.36 µM
same,TGI,[30],> 100 µM
same,GI50,[31],15.2 µM
same,TGI,[31],> 100 µM
same,GI50,[32],32.5 µM
same,TGI,[32],> 100 µM
same,GI50,[33],> 100 µM
same,TGI,[33],> 100 µM
same,GI50,[34],7.29 µM
same,TGI,[34],> 100 µM
same,GI50,[35],76.1 µM
same,TGI,[35],> 100 µM
same,GI50,[36],23.9 µM
same,TGI,[36],> 100 µM
same,GI50,[37],> 100 µM
same,TGI,[37],> 100 µM
same,GI50,[38],5.42 µM
same,TGI,[38],> 100 µM
same,GI50,[39],48.9 µM
same,TGI,[39],> 100 µM
same,GI50,[40],> 100 µM
same,TGI,[40],> 100 µM
same,GI50,[41],> 100 µM
same,TGI,[41],> 100 µM
same,GI50,[42],25.8 µM
same,TGI,[42],> 100 µM
same,GI50,[43],26.9 µM
same,TGI,[43],> 100 µM
same,GI50,[44],3.81 µM
same,TGI,[44],> 100 µM
same,GI50,[45],12.8 µM
same,TGI,[45],> 100 µM
same,GI50,[46],> 100 µM
same,TGI,[46],> 100 µM
same,GI50,[47],6.7 µM
same,TGI,[47],> 100 µM
same,GI50,[48],> 100 µM
same,TGI,[48],> 100 µM
same,GI50,[49],> 100 µM
same,TGI,[49],> 100 µM
same,GI50,[50],> 100 µM
same,TGI,[50],> 100 µM
same,GI50,[51],> 100 µM
same,TGI,[51],> 100 µM
same,GI50,[52],> 100 µM
same,TGI,[52],> 100 µM
same,GI50,[53],6.17 µM
same,TGI,[53],> 100 µM
same,GI50,[54],8.96 µM
same,TGI,[54],> 100 µM
same,GI50,[55],22.9 µM
same,TGI,[55],> 100 µM
same,GI50,[56],9.89 µM
same,TGI,[56],> 100 µM
same,GI50,[57],> 100 µM
same,TGI,[57],> 100 µM
same,GI50,[58],> 100 µM
same,TGI,[58],> 100 µM
COc1ccc(/C=C2\COc3ccc(O)c(O)c3C2=O)cc1,GI50,[1],0.458 µM
same,TGI,[1],18.7 µM
same,GI50,[2],0.492 µM
same,TGI,[2],2.74 µM
same,GI50,[3],1.08 µM
same,TGI,[3],> 31.2 µM
same,GI50,[4],0.464 µM
same,TGI,[4],> 100 µM
same,GI50,[5],2.55 µM
same,TGI,[5],16.2 µM
same,GI50,[6],0.403 µM
same,TGI,[6],> 100 µM
same,GI50,[7],0.513 µM
same,TGI,[7],2.41 µM
same,GI50,[8],0.951 µM
same,TGI,[8],4.23 µM
same,GI50,[9],0.376 µM
same,TGI,[9],20.4 µM
same,GI50,[10],1.34 µM
same,TGI,[10],6.58 µM
same,GI50,[11],0.33 µM
same,TGI,[11],> 100 µM
same,GI50,[12],2.46 µM
same,TGI,[12],7.94 µM
same,GI50,[13],2.19 µM
same,TGI,[13],5.85 µM
same,GI50,[14],0.741 µM
same,TGI,[14],23.6 µM
same,GI50,[15],2.89 µM
same,TGI,[15],14.9 µM
same,GI50,[16],0.511 µM
same,TGI,[16],4.57 µM
same,GI50,[17],0.334 µM
same,TGI,[17],2.09 µM
same,GI50,[18],0.751 µM
same,TGI,[18],2.69 µM
same,GI50,[19],0.517 µM
same,TGI,[19],26.9 µM
same,GI50,[20],0.637 µM
same,TGI,[20],2 µM
same,GI50,[21],4.62 µM
same,TGI,[21],> 100 µM
same,GI50,[22],1.14 µM
same,TGI,[22],6.1 µM
same,GI50,[23],0.422 µM
same,TGI,[23],> 100 µM
same,GI50,[24],3.15 µM
same,TGI,[24],10.8 µM
same,GI50,[25],2.47 µM
same,TGI,[25],> 61.3 µM
same,GI50,[26],0.329 µM
same,TGI,[26],35.7 µM
same,GI50,[27],3.27 µM
same,TGI,[27],19.6 µM
same,GI50,[28],1.31 µM
same,TGI,[28],4.82 µM
same,GI50,[29],0.511 µM
same,TGI,[29],4.85 µM
same,GI50,[30],0.44 µM
same,TGI,[30],1.31 µM
same,GI50,[31],0.325 µM
same,TGI,[31],1.17 µM
same,GI50,[32],2.98 µM
same,TGI,[32],> 100 µM
same,GI50,[33],0.308 µM
same,TGI,[33],> 48.2 µM
same,GI50,[34],1.57 µM
same,TGI,[34],> 27.1 µM
same,GI50,[35],1 µM
same,TGI,[35],5.55 µM
same,GI50,[36],1.31 µM
same,TGI,[36],6.07 µM
same,GI50,[37],0.369 µM
same,TGI,[37],1.52 µM
same,GI50,[38],1.17 µM
same,TGI,[38],4.71 µM
same,GI50,[39],0.329 µM
same,TGI,[39],1.25 µM
same,GI50,[40],0.572 µM
same,TGI,[40],> 100 µM
same,GI50,[41],1.47 µM
same,TGI,[41],8.97 µM
same,GI50,[42],0.924 µM
same,TGI,[42],3.95 µM
same,GI50,[43],2.37 µM
same,TGI,[43],6.9 µM
same,GI50,[44],0.606 µM
same,TGI,[44],1.97 µM
same,GI50,[45],0.708 µM
same,TGI,[45],5.27 µM
same,GI50,[46],0.522 µM
same,TGI,[46],2.49 µM
same,GI50,[47],0.317 µM
same,TGI,[47],1.2 µM
same,GI50,[48],2.24 µM
same,TGI,[48],16.2 µM
same,GI50,[49],0.159 µM
same,TGI,[49],0.402 µM
same,GI50,[50],2.45 µM
same,TGI,[50],6.28 µM
same,GI50,[51],1.15 µM
same,TGI,[51],7.47 µM
same,GI50,[52],2.38 µM
same,TGI,[52],> 33.2 µM
same,GI50,[53],0.333 µM
same,TGI,[53],9.82 µM
same,GI50,[54],2 µM
same,TGI,[54],6.85 µM
same,GI50,[55],0.42 µM
same,TGI,[55],3.11 µM
same,GI50,[56],0.391 µM
same,TGI,[56],2.53 µM
same,GI50,[57],0.257 µM
same,TGI,[57],0.984 µM
same,GI50,[58],0.923 µM
same,TGI,[58],> 100 µM
